Assay results from paper PMC3221803 (Journal of neuroscience methods, 2011).
Several values for one entry are separate records, joined by “and”; a condition that tells them apart may be missing. Equal entries are not always repeated. Where two headings read alike, the source gives them in different places.

How the values were obtained:
hNET [1] = biological target: T1, hNET (Homo sapiens, UniProt P23975); conditions: intact cells, 25°C
hNET [2] = biological target: T1, hNET; conditions: read-out: IC50 for inhibition of [^3H]NE uptake; ref Eshleman et al., 1999; cited from earlier work
hNET [3] = biological target: T1, hNET; test: biochemical; format: binding

T1 sequence (P23975 whole entry): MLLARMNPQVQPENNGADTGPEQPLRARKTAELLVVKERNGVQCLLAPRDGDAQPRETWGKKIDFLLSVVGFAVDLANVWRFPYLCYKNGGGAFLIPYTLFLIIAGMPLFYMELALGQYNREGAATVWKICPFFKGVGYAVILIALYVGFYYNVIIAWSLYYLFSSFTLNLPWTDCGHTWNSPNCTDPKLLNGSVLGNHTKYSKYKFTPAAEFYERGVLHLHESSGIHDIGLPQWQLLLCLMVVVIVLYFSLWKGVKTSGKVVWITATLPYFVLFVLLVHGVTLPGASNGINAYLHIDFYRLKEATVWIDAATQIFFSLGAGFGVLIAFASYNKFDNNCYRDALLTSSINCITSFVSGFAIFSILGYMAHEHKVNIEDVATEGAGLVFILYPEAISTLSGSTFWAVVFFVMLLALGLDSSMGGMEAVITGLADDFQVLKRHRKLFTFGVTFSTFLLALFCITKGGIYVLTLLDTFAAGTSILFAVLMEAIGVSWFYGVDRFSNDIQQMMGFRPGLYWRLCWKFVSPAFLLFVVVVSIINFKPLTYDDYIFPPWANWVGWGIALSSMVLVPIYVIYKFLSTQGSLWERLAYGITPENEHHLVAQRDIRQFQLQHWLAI

Row | SMILES | Time to maximal [^3H]CFT binding (hNET [1]) | IC50 (hNET [2]) | Time to maximal [^3H]CFT binding (hNET [3]) | Kd (hNET [3]; Kd of CFT) | Kd (hNET [3]; Kd of [^3H]CFT binding) | Potency in inhibiting [^3H]CFT binding relative to [^3H]NE uptake (Ki ratio) (hNET [3])
1 | COC(=O)[C@H]1[C@@H](c2ccc(F)cc2)C[C@@H]2CC[C@H]1N2C [CFT, 2β-carbomethoxy-3β-(4-fluorophenyl)-tropane] | 15 min | 33.3 nM | 15 min | 18 ± 5 nM | 35.7 nM and 22.1 nM and 34.5 nM | –
2 | CN1[C@@H]2CC[C@H]1C[C@@H](OC(c1ccccc1)c1ccccc1)C2 [benztropine] | – | – | – | – | – | equipotent
3 | OC1(c2ccc(Cl)cc2)c2ccccc2C2=NCCN21 (stereo not shown) [mazindol] | – | – | – | – | – | weaker
